From patent EP3117830A1, “ANTIBACTERIAL PEPTIDES, AND USES THEREOF” (Nuritas Limited, priority 2015, dated 2017)
Like-named read-outs stand apart in the source and are kept apart here. No end group written: not given here.

Assays:
[1] = test system: E. coli ATCC 25922; type: cell-based
Excerpt: Antibacterial activity testing (in solid media).

[2] = test system: E. coli ATCC 25922; test: microbe, parasite or virus in culture; details: Escherichia coli
[3] = test system: A. baumannii ATCC 19606; test: microbe, parasite or virus in culture; details: Acinetobacter baumannii
[4] = test system: MRSA ATCC 43300; test: microbe, parasite or virus in culture; details: Staphylococcus aureus, ATCC43300|MRSA

Row | Compound | inhibition zone [1] | zone of inhibition at 64 µg/mL ([2]; ATCC25922, read-out: Inhibition zone diameter (mm) E. coli ATCC 25922 Rep 1) [mm] | zone of inhibition at 64 µg/mL ([2]; ATCC25922, read-out: Inhibition zone diameter (mm) E. coli ATCC 25922 Rep 2) [mm] | zone of inhibition at 64 µg/mL ([2]; ATCC25922, read-out: Inhibition zone diameter (mm) E. coli ATCC 25922 Rep 3) [mm] | zone of inhibition at 64 µg/mL ([3]; ATCC19606, read-out: Inhibition zone diameter (mm) A. baumannii ATCC 19606 Rep 1) [mm] | zone of inhibition at 64 µg/mL ([3]; ATCC19606, read-out: Inhibition zone diameter (mm) A. baumannii ATCC 19606 Rep 2) [mm] | zone of inhibition at 64 µg/mL ([3]; ATCC19606, read-out: Inhibition zone diameter (mm) A. baumannii ATCC 19606 Rep 3) [mm] | zone of inhibition at 64 µg/mL ([4]; read-out: Inhibition zone diameter (mm) MRSA ATCC 43300 Rep 1) [mm] | zone of inhibition at 64 µg/mL ([4]; read-out: Inhibition zone diameter (mm) MRSA ATCC 43300 Rep 2) [mm] | zone of inhibition at 64 µg/mL ([4]; read-out: Inhibition zone diameter (mm) MRSA ATCC 43300 Rep 3) [mm]
1 | LNSQKFPILNLVQLSATR [I_87_SF] | 9-10 mm | – | – | – | – | – | – | – | – | –
2 | O=C(O)c1cn(C2CC2)c2cc(N3CCNCC3)c(F)cc2c1=O [CIP, Ciprofloxacin] | – | 42 | 40 | 42 | 27 | 28 | 27 | 27 | 28 | 29
